Patent publication US20130131321A1, “LIGANDS FOR ANTIBODY AND Fc-FUSION PROTEIN PURIFICATION BY AFFINITY CHROMATOGRAPHY” (GRAFFINITY PHARMACEUTICALS GMBH, priority 2010, published 2013)

Legend:
Bevacizumab Fab fragment [1] = assay: Microtiter plate chromatography of resins, Bevacizumab Fab fragment (bound); format: binding, humanized
Experimental: Resins were assessed in packed mode by microtiter plate chromatography. For each column, approximately 30 μl of resin were transferred to a 384-well filter plate and sealed with appropriate top frits.
Columns were equilibrated with 6.7 column volumes (cv) of phosphate buffered saline (0.15 M NaCl, 20 mM sodium phosphate, pH 7.3; PBS) prior to injection. Either 3.3 cv of whole IgGs dissolved at 0.75 mg ml^−1, Fab or Fc fragments dissolved at 0.25 mg ml^−1 (all three in PBS) or host cell proteins (HCP) were injected onto columns. Antibody fragments of Bevacizumab (Fab and Fc) were prepared by cleavage of whole IgG with papain protease (3) according to the protocol of the manufacturer. […] Volumes transferred were spun through columns at 50 g for 1-2 min. During injection of samples, acceleration was reduced to 10 g and centrifugation time increased to 5-10 min. Effluent fractions were collected in 384-well plates and concentrations of protein analyzed by Bradford assay. Protein masses mi, mft and me (see below) were calculated as the product of fraction volume and measured protein concentration.
The fraction of ‘bound’ protein was calculated as the difference between the total mass of protein injected mi and the mass of protein detected in the flowthrough mft, divided by the total mass of protein injected.
the fraction of ‘bound’ protein and the ‘yield’ of protein were calculated for each resin based on data for whole IgG-antibodies. In the case of Bevacizumab fragments and host cell proteins, only the fraction of ‘bound’ protein is given. Selectivity of resins was calculated from data for Bevacizumab Whole IgG and host cell proteins. Due to limited experimental precision, selectivity was truncated beyond values of 10.

Bevacizumab = biological target: T1, Bevacizumab (Homo sapiens, UniProt P01857); assay: Dynamic and equilibrium binding capacity by column chromatography; design: species or system humanized; details: 1 mg ml^−1 Bevacizumab
T1 construct: fused on or other part: humanised anti-VEGF-A VH domain N-terminal of the gamma-1 constant region (engineered, no UniProt entry)
Experimental: Dynamic binding capacities were determined by column chromatography with purified Bevacizumab. Resins were packed into analytical columns of 25 mm length and 3 mm inner diameter. Columns were fed with 1 mg ml^−1 antibody in phosphate-buffered saline (150 mM NaCl, 20 mM phosphate buffer, pH 7.3) at constant flow rate, while the concentration of antibody in effluents was monitored online via absorbance at 280 nm. Antibody was loaded until effluent concentration reached at least 10% of the feed concentration. Dynamic binding capacities were determined at a flow rate of 50 cm h^−1, corresponding to 3 min empty column residence time. Equilibrium capacities were also determined at a flow rate of 50 cm h^−1 by loading until complete breakthrough of antibody. […]
‘Dynamic capacity’ was defined as the amount of antibody that can be injected onto a column at constant flow rate until the effluent concentration reaches 10% of the feed concentration. It was calculated as the time t0.1 after which 10% breakthrough occurred, multiplied by the flow rate F and feed concentration cf.
Equilibrium capacity is defined as the maximum amount of antibody that binds to a column for a given feed stream concentration. It was calculated by evaluation of the following integral
The integral was evaluated numerically. […]

host cell proteins (HCP) = assay: Microtiter plate chromatography of resins, host cell proteins (bound); format: binding, CHO; details: host cell proteins
Bevacizumab Fab fragment [2] = assay: SPR screening of chemical microarrays, Bevacizumab Fab fragment; format: binding, humanized; details: chemical microarray, immobilized ligand
From the text: (§1) Graffinity has developed high density chemical microarrays comprising thousands of small molecules immobilized onto gold chips. The arrays are constructed using maleimide-thiol coupling chemistry in combination with high density pintool spotting. For the construction, glass plates are microstructured by photolithographical methods in order to define up to 9,216 sensor fields per array. A subsequently applied gold coating provides the basis for the SPR effect and enables the formation of a binary, mixed self assembled monolayer (SAM) of two different thiols. […]
(§2) Surface plasmons are collective oscillations of electrons at a metal surface which can be resonantly excited by polarized light of appropriate wavelength and incidence angle. […] Processes which alter the local refractive index in close proximity to the metal surface (such as antibody binding to the immobilized ligands) can therefore be monitored sensitively. […] While scanning over a range of wavelengths covering the SPR resonance conditions, reflection images are recorded stepwise. […]
(§3) The experimental results of the microarray screening campaigns were analyzed by manual hit selection using in-house developed software routines as well as by an in-depth data analysis by commercially available data mining tools. […]

Bevacizumab Fc fragment = assay: SPR screening of chemical microarrays, Bevacizumab Fc fragment; format: binding, humanized; details: chemical microarray, immobilized ligand
From the text: as §1, §2, §3

Compound: COc1ccc(NC(=O)c2cc(-c3ccco3)n(C)n2)cc1C(=O)NCCCN [Ligand L1, 5-[5-(2-Furyl)-1-methylpyrazol-3-yl]carboxamido-2-methoxybenzoic acid N-(3-aminopropyl)amide]
- Bevacizumab Fab Bound (%) (Bevacizumab Fab fragment [1]; Bevacizumab Fab fragment): 18%
- binding of Bevacizumab Fab-fragment (Bevacizumab Fab fragment [1]; Fab 0.25 mg ml^-1 in PBS): not the Fab-fragment
- Dynamic Capacity (Bevacizumab; 50 cm h^−1, 10% breakthrough): 20.2 mg per ml of resin
- Equilibrium Capacity (Bevacizumab; 50 cm h^−1, complete breakthrough): 25.7 mg per ml of resin
- HCP Bound (%) (host cell proteins (HCP)): 30%
- SPR binding to Bevacizumab Fab fragment (Bevacizumab Fab fragment [2]): only minor binding
- SPR binding to Bevacizumab Fc fragment (Bevacizumab Fc fragment): distinct binding
